According to patent publication US20050261290A1, “Novel compounds of proline and morpholine derivatives” (priority 2004, published 2005):
Like-named read-outs stand apart in the source and are kept apart here.

Biological target: human 11b-hsd-1 (Homo sapiens, UniProt P28845)
Experiment: Inhibition constant Ki of human 11b-hsd-1 (3H-cortisone to 3H-cortisol conversion, HPLC)
Assay type: biochemical
Details: for Ki: apparent Ki, read-out: Ki app

Chain of human 11b-hsd-1 (P28845 whole entry): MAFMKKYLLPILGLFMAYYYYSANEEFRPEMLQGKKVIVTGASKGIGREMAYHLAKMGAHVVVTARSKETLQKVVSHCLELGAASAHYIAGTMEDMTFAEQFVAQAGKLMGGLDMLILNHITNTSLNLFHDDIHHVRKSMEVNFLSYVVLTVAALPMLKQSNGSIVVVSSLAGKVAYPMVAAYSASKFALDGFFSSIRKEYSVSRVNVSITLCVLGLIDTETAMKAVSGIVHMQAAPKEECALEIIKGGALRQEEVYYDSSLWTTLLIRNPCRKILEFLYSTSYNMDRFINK

| Structure (SMILES) | inhibition at 0.1 µM (0.1 μM compound) [%] | Ki [nM] | Ki (human 11b-hsd-1) [nM] | inhibition at 0.1 µM (compound at 0.1 μM) [%] |
| --- | --- | --- | --- | --- |
| CC(C)CN1CSC[C@H]1C(=O)N(C)C1CCCCC1 [Example 195] | 100 | 13 | – | – |
| CCCN1CCC[C@@H]1C(=O)NC1(C)CCCCC1 [Example 104] | – | – | 6 | 100 |
| O=C(NC1C2CC3CC(C2)CC1C3)[C@@H]1C[C@H](Oc2ccccc2)CN1 (stereo partly drawn) [Example 338] | 100 | 1 | – | – |
| O=C(NC1CCCCC1)[C@H]1CCCN1C1CCC1 [Example 103] | – | – | 14 | 83 |
| O=C(NC1C2CC3CC(C2)CC1C3)[C@H]1NCC[C@@H]1C1CCCC1 (stereo partly drawn) [Example 342] | 97.5 | 9.9 | – | – |
| O=C(N[C@@H]1CCCc2ccccc21)[C@H]1CCCN1CC1CCCC1 [Example 299] | 100 | 2.23 | – | – |
| O=C(NCc1ccccc1F)[C@H]1CCCN1CCC(F)(F)F [Example 229] | 73.7 | 48 | – | – |
| Cc1ccc(CNC(=O)[C@H]2CCCN2CCC(F)(F)F)cc1 [Example 326] | 69.4 | 69 | – | – |
| Cc1ncccc1CNC(=O)[C@H]1CCCN1CC(C)C [Example 40] | – | – | 19 | 100 |
| O=C(NCc1ccccc1)[C@H]1CCCN1CC1CCCCC1 [Example 3, N-benzyl-1-(cyclohexylmethyl)-D-prolinamide] | – | – | 15 | 92 |
| Cc1ccccc1CNC(=O)[C@H]1CCCN1CCc1ccccc1 [Example 270] | 84.7 | 35 | – | – |
| CN(C(=O)[C@H]1COCCN1CC1CCCCC1)C1CCCCC1 [Example 11, (3R)-N-cyclohexyl-4-(cyclohexylmethyl)-N-methylmorpholine-3-carboxamide] | – | – | 38.3 | 80 |
| CS(=O)(=O)N1CCC(CN2CCC[C@@H]2C(=O)NC2C3CC4CC(C3)CC2C4)CC1 (stereo partly drawn) [Example 140] | – | – | – | 100 |
| CC(C)CN1CCC[C@@H]1C(=O)NCC1(O)CCCCC1 [Example 69] | – | – | 7 | 100 |
| N#Cc1ccc(CN2CCC[C@@H]2C(=O)NCc2ccccc2Cl)cc1 [Example 253] | 100 | 24 | – | – |
| NC(=O)CN1CCC[C@@H]1C(=O)NC1C2CC3CC(C2)CC1C3 (stereo partly drawn) [Example 19] | – | – | 17 | 86 |
| O=C(NC12CC3CC(CC(C3)C1)C2)[C@H]1CCCN1Cc1ccccn1 [Example 250] | 100 | 5.9 | – | – |
| CCN1CCCC[C@@H]1C(=O)NC12CC3CC(CC(C3)C1)C2 [Example 12] | – | – | 14 | 89 |
| CN(C(=O)[C@H]1CCCN1Cc1ccc(Cl)cc1)C1CCCCC1 [Example 191] | – | – | 28 | 83.7 |
| CC(C)CN1CCC[C@@H]1C(=O)N[C@H]1c2ccccc2C[C@H]1O [Example 288] | 99.1 | 5.51 | – | – |

| Structure (SMILES) | inhibition at 0.1 µM (0.1 μM compound) [%] | Ki [nM] | Ki (human 11b-hsd-1) [nM] | inhibition at 0.1 µM (compound at 0.1 μM) [%] |
| --- | --- | --- | --- | --- |
| CCC1CCCCN1C(=O)[C@H]1CCCN1Cc1ccc(Cl)cc1 (stereo partly drawn) [Example 197] | 73.2 | 50 | – | – |
| O=C(NC1C2CC3CC(C2)CC1C3)[C@H]1COCCN1CCN1CCCC1 (stereo partly drawn) [Example 70] | – | – | – | 74 |
| O=C(NC1C2CC3CC(C2)CC1C3)[C@H]1CCCN1Cc1ccn[nH]1 (stereo partly drawn) [Example 126] | – | – | – | 71 |
| O=C(NC12CC3CC(CC(C3)C1)C2)[C@H]1CCCN1Cc1ccc(Cl)cc1 [Example 10] | – | – | 0.85 | 100 |
| O=C(N[C@H]1c2ccccc2C[C@H]1O)[C@H]1CCCN1CC1CCCC1 [Example 293] | 92.6 | 22.4 | – | – |
| N#Cc1ccc(CN2CCOC[C@@H]2C(=O)NC2CCCCC2)cc1 [Example 306] | 100 | 4.9 | – | – |
| CC(C)CN1CC[C@H](O)[C@H]1C(=O)NC12CC3CC(CC(C3)C1)C2 [Example 211] | 80.2 | 32 | – | – |
| O=C(NC1CCCCC1)[C@@H]1C[C@H](Oc2ccc(Cl)c(F)c2)CN1 [Example 373] | 91.8 | – | – | – |
| N#Cc1ccc(CN2CCOC[C@@H]2C(=O)NCC2CCCCC2)cc1 [Example 334] | 100 | 2.4 | – | – |
| O=C(NC1C2CC3CC(C2)CC1C3)[C@H]1CCCN1C[C@H]1CCCN1 (stereo partly drawn) [Example 138] | – | – | – | 100 |
| COc1ccccc1CNC(=O)[C@H]1CCCN1Cc1ccccc1 [Example 245] | 84.6 | 17 | – | – |
| O=C(NC1C2CC3CC(C2)CC1C3)[C@H]1NCC[C@@H]1Cc1ccccc1 (stereo partly drawn) [Example 369] | 100 | 6.6 | – | – |
| CC(C)CN1CCOC[C@@H]1C(=O)N[C@H](C)c1ccc(Cl)cc1 [Example 317] | 91.1 | 8.72 | – | – |
| CCCN1CCC[C@@H]1C(=O)NC12C3C4C1C1C2C3C41C (stereo partly drawn) [Example 123] | – | – | – | 100 |
| O=C(NC12CC3CC(CC(C3)C1)C2)C1COCCN1CCC1CCOCC1 (stereo not drawn) [Example 185] | – | – | 14 | 91.3 |
| CC(C)(C)OC(=O)N1CCC(CN2CCC[C@@H]2C(=O)NC2C3CC4CC(C3)CC2C4)C1 (stereo partly drawn) [Example 114] | – | – | – | 100 |
| CC(C)CN1CCC(CN2CCOC[C@@H]2C(=O)NC2C3CC4CC(C3)CC2C4)CC1 (stereo partly drawn) [Example 74] | – | – | – | 90 |
| CCN1C[C@H](O)C[C@@H]1C(=O)NC1C2CC3CC(C2)CC1C3 (stereo partly drawn) [Example 24] | – | – | 1.4 | 100 |
| O=C(NC1C2CC3CC(C2)CC1C3)[C@H]1CCCN1CCN1CCCC1 (stereo partly drawn) [Example 132] | – | – | – | 92 |
| O=C(NC1C2CC3CC(C2)CC1C3)[C@H]1CCCN1CC1CCOC1 (stereo partly drawn) [Example 115] | – | – | – | 100 |

| Structure (SMILES) | inhibition at 0.1 µM (0.1 μM compound) [%] | Ki [nM] | Ki (human 11b-hsd-1) [nM] | inhibition at 0.1 µM (compound at 0.1 μM) [%] |
| --- | --- | --- | --- | --- |
| Cc1ccccc1CNC(=O)[C@H]1CCCN1CC(C)C [Example 256] | 100 | 7 | – | – |
| O=C(NCc1ccc(F)cc1)[C@H]1COCCN1Cc1ccccc1 [Example 274] | 78.4 | 2.6 | – | – |
| C[C@H](O)CN1CCC[C@@H]1C(=O)NC1C2CC3CC(C2)CC1C3 (stereo partly drawn) [Example 117] | – | – | – | 100 |
| CC(C)N1CCC(CN2C[C@H](O)C[C@@H]2C(=O)NC2C3CC4CC(C3)CC2C4)CC1 (stereo partly drawn) [Example 76] | – | – | – | 14 |
| O=C(NC1C2CC3CC(C2)CC1C3)[C@H]1CNC[C@H](c2ccccc2)C1 (stereo partly drawn) [Example 346] | 90.2 | 18 | – | – |
| CN1CCC(CN2C[C@H](O)C[C@@H]2C(=O)NC2CCCCC2)CC1 [Example 42, (4R)-N-cyclohexyl-4-hydroxy-1-[(1-methylpiperidin-4-yl)methyl]-D prolinamide] | – | – | – | 0 |
| CS(=O)(=O)NCCN1CCC[C@@H]1C(=O)NC1C2CC3CC(C2)CC1C3 (stereo partly drawn) [Example 130, 1-(2-Methanesulfonylamino-ethyl)pyrrolidine-2-carboxylic acid adamantan-2-ylamide] | – | – | – | 56 |
| CCN1CCC[C@@H]1C(=O)NC1CCCCC1 [Example 84] | – | – | – | 62 |
| CN(C)CCCN1CCC[C@@H]1C(=O)NC1C2CC3CC(C2)CC1C3 (stereo partly drawn) [Example 108] | – | – | 9 | 100 |
| N#Cc1cccc(CN2CCC[C@@H]2C(=O)NC23CC4CC(CC(C4)C2)C3)c1 [Example 249] | 100 | 1 | – | – |
| CC(C)CN1CCOC[C@@H]1C(=O)N[C@@H]1CCCc2ccccc21 [Example 316] | 91 | 10.9 | – | – |
| CS(=O)(=O)N1CCC[C@H]1CN1CCC[C@@H]1C(=O)NC1C2CC3CC(C2)CC1C3 (stereo partly drawn) [Example 135] | – | – | – | 100 |
| CCCN1CCC[C@@H]1C(=O)NC1Cc2ccccc2C1 [Example 38] | – | – | 7.9 | 90.4 |
| CC(C)CN1C[C@H](O)C[C@@H]1C(=O)NC1C2CC3CC(C2)CC1C3 (stereo partly drawn) [Example 25] | – | – | 1.7 | 100 |
| CCCN1CCC[C@@H]1C(=O)NCC1CCCC1 [Example 94] | – | – | 11 | 86 |
| CCCN1CCC[C@@H]1C(=O)NC1CCC(F)(F)CC1 [Example 137] | – | – | – | 87 |
| CC[C@H]1CCN[C@@H]1C(=O)NC1C2CC3CC(C2)CC1C3 (stereo partly drawn) [Example 345] | 76.5 | 27 | – | – |
| CN(CCN1CCC[C@@H]1C(=O)NC1C2CC3CC(C2)CC1C3)Cc1ccccc1 (stereo partly drawn) [Example 110, 1-[2-(Benzyl-methyl-amino)ethyl]-pyrrolidine-2-carboxylic acid adamantan-2-ylamide] | – | – | – | 100 |
| O=C(NC1C2CC3CC(C2)CC1C3)[C@H]1C[C@@H](O)CN1Cc1ccc(F)cc1 (stereo partly drawn) [Example 27] | – | – | 1.1 | 100 |
| O=C(NC12CC3CC(CC(C3)C1)C2)[C@H]1[C@H]2CC[C@H](C2)N1Cc1ccc(Cl)cc1 (relative stereo) [Example 203] | 100 | 1 | – | – |
